In PMC7392643, “Antibiotic fidaxomicin is an RdRp inhibitor as a potential new therapeutic agent against Zika virus” (BMC Medicine, 2020):

Legend:
[1] = in vitro; details: African green monkey
Experimental: Cell viability was detected by the 3-(4,5-dimethyl-2-thiazolyl)-2,5-diphenyl-2H-tetrazolium bromide (MTT) assay according to a previously described method [48]. Briefly, cells were seeded in 96-well plates at a density of 1 × 10^4 cells per well and cultured at 37 °C for 24 h, followed by exposure to the serially diluted fidaxomicin or ribavirin separately for 48 h. Cell survival rate was determined by MTT reduction assay according to the manufacturer’s protocol (Invitrogen). The 50% cytotoxic concentration (CC50) was defined as the compound concentration required to inhibit the cell growth by 50% compared with the control assay. The assay was performed in triplicates in three independent experiments.

[2] = biological target: T1, ZIKV NS5 full-length protein (Zika virus, UniProt A0A024B7W1); assay: SPR (BIAcore) binding to ZIKV NS5 full-length protein; details: qualitative
T1 construct: NS5 (amino acids 1 to 903); His tag (8x histidine) (N); made in house; host or cells: Escherichia coli (Rosetta)
Experimental: (§1) The cDNA fragment of ZIKV (ZG-01 strain) NS5 (amino acids 1 to 903), RdRp (amino acids 272 to 903), or DENV2 NS5 (amino acids 1 to 900) containing an N-terminal His tag sequence was cloned into a pET-30a-mutant vector. For protein expression, the plasmids were transformed into Rosetta™ competent cells (TIANGEN BIOTECH Co., Ltd., Beijing, China), respectively. […] Mass spectrometry was performed by Shanghai Applied Protein Technology Co. Ltd. (Shanghai, China). The concentration of a targeted protein was measured by SDS-PAGE using BSA (Sigma, St. Louis, MO) as a standard.
Surface plasmon resonance (SPR) experiments were performed in a BIAcore T100 device (BIAcore Inc., Uppsala, Sweden) using CM5 sensor chips (General Electric Company, GE) according to the protocol provided by the manufacturer. Briefly, recombinant ZIKV NS5 protein, RdRp protein, or DENV2 NS5 protein was immobilized on a CM5 chip, respectively. Different concentrations of fidaxomicin or ribavirin were injected at a flow rate of 30 μL/min for 3 min. Subsequently, data were collected for a 3-min association followed by a 20-min dissociation. The chip was regenerated by injecting 10 μL of 15 mM NaOH for 20 s. […] The binding kinetics was analyzed with the software BIAevaluation version 3.1 using a 1:1 Langmuir binding model. The Kd was calculated as previously described.

[3] = biological target: T2, ZIKV RdRp protein (Zika virus, UniProt A0A024B7W1); assay: SPR (BIAcore) binding to ZIKV RdRp protein; details: qualitative
T2 construct: RdRp (amino acids 272 to 903); His tag (8x histidine) (N); made in house; host or cells: Escherichia coli (Rosetta)
T2 sequence (A0A024B7W1 2792-3423): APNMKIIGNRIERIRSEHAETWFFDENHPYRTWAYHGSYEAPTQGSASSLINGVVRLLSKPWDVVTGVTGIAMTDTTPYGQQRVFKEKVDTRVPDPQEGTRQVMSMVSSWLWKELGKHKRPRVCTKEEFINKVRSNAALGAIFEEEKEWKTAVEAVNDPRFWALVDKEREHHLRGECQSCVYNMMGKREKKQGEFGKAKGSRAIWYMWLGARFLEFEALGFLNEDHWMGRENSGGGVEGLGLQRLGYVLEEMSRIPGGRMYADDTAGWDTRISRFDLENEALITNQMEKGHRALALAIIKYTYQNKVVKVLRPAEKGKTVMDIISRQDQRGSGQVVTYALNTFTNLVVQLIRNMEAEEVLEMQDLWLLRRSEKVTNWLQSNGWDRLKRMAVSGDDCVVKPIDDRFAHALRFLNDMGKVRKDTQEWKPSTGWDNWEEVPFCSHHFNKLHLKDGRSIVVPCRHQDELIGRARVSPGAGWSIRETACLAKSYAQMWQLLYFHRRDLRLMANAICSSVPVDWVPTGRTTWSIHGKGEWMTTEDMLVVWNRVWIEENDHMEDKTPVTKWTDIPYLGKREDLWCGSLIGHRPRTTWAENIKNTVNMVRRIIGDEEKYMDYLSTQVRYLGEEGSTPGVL
Experimental: as §1
Surface plasmon resonance (SPR) experiments were performed in a BIAcore T100 device (BIAcore Inc., Uppsala, Sweden) using CM5 sensor chips (General Electric Company, GE) according to the protocol provided by the manufacturer. Briefly, recombinant ZIKV NS5 protein, RdRp protein, or DENV2 NS5 protein was immobilized on a CM5 chip, respectively. Different concentrations of fidaxomicin or ribavirin were injected at a flow rate of 30 μL/min for 3 min. Subsequently, data were collected for a 3-min association followed by a 20-min dissociation. The chip was regenerated by injecting 10 μL of 15 mM NaOH for 20 s. All procedures were run in 1% DMSO PBS-P20 (GE) as a running buffer. The binding kinetics was analyzed with the software BIAevaluation version 3.1 using a 1:1 Langmuir binding model. The Kd was calculated as previously described.

[4] = test system: ZIKV ZG-01 strain; assay: In vitro antiviral assay, plaque assay, ZIKV ZG-01; details: for EC50 / EC90: Zika virus
Experimental: The anti-ZIKV activity of fidaxomicin and ribavirin was evaluated in vitro by plaque assay. Various cell lines, including SNB19 (6 × 10^4/well, 10% FBS DMEM), A172 (7 × 10^4/well, 10% FBS DMEM), Vero (6 × 10^4/well 10% FBS DMEM), Huh7 (7 × 10^4/well, 10% FBS DMEM), HUVECs (7 × 10^4/well, 15% FBS M199 medium supplemented with 2 mM L-glutamine, 0.02 mg/mL endothelial cell growth supplement, and 0.05 mg/mL heparin), and A549 (6 × 10^4/well, 5% FBS DMEM), were plated in 12-well plates and allowed to attach overnight, followed by infection with ZIKV (ZG-01 strain or MR766 strain, respectively, at indicated MOI) in the presence of different concentrations of fidaxomicin, ribavirin, or vehicle control for 1 h, followed by two washes with 1 × PBS and incubated with fresh medium (without virus) consisting of corresponding concentrations of the compounds for further 48 h. The cell supernatants were collected to quantify ZIKV infection by plaque assay as previously described or by RT-qPCR. […] The anti-DENV activity of fidaxomicin was evaluated in vitro by RT-qPCR.

[5] = test system: ZIKV MR766 strain; assay: In vitro antiviral assay, plaque assay, ZIKV MR766; type: cell-based; details: Zika virus, 48 h
Experimental: Various cell lines, including SNB19 (6 × 10^4/well, 10% FBS DMEM), A172 (7 × 10^4/well, 10% FBS DMEM), Vero (6 × 10^4/well 10% FBS DMEM), Huh7 (7 × 10^4/well, 10% FBS DMEM), HUVECs (7 × 10^4/well, 15% FBS M199 medium supplemented with 2 mM L-glutamine, 0.02 mg/mL endothelial cell growth supplement, and 0.05 mg/mL heparin), and A549 (6 × 10^4/well, 5% FBS DMEM), were plated in 12-well plates and allowed to attach overnight, followed by infection with ZIKV (ZG-01 strain or MR766 strain, respectively, at indicated MOI) in the presence of different concentrations of fidaxomicin, ribavirin, or vehicle control for 1 h, followed by two washes with 1 × PBS and incubated with fresh medium (without virus) consisting of corresponding concentrations of the compounds for further 48 h. The cell supernatants were collected to quantify ZIKV infection by plaque assay as previously described [47] or by RT-qPCR.

T1 sequence (A0A024B7W1 2521-3423): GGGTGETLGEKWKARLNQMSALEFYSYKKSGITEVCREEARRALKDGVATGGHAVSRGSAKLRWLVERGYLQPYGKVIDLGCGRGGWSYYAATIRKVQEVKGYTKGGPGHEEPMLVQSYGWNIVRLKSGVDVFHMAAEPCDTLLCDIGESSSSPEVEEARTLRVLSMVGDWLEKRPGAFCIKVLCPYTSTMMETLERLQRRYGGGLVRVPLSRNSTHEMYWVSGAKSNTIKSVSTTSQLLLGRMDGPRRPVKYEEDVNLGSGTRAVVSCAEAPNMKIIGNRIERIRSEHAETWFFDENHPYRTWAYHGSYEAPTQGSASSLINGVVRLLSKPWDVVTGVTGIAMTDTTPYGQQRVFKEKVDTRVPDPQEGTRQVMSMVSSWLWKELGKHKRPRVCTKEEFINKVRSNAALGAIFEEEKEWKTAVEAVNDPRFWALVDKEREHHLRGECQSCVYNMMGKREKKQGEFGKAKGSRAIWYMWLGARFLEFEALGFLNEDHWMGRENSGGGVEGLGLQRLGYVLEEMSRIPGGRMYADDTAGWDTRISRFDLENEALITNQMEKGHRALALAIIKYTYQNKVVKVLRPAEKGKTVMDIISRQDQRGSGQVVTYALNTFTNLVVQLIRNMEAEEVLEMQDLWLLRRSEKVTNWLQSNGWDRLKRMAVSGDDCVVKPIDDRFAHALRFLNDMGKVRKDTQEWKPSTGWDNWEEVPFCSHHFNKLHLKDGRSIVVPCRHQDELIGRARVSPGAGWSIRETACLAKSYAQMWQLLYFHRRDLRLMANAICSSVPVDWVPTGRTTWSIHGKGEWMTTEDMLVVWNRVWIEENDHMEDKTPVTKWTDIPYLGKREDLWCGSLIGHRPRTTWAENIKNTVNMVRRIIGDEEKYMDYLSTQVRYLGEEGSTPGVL

## NC(=O)c1ncn([C@@H]2O[C@H](CO)[C@@H](O)[C@H]2O)n1 [Ribavirin, ribavirin]
[1]
  CC50 at 48 h: 486 ± 20.1 µM
[2]
  binding to ZIKV NS5 protein (SPR): very weak interaction
[3]
  binding to ZIKV RdRp protein (SPR): weak
[4]; SNB19 cells
  efficacy against ZIKV infection under non-cytotoxic concentration: far less effective
[4]; A549, 48 h
  EC50: 33.2 ± 3.4 µM
  EC90: 71.6 ± 6.2 µM
[4]; Huh-7, 48 h
  EC50: 12.7 ± 2.3 µM
  EC90: 54.3 ± 3.5 µM
[4]; SNB-19, 48 h
  EC50: > 100 µM
  EC90: > 100 µM
[4]; Vero, 48 h
  EC50: > 100 µM
  EC90: > 100 µM
[5]; A549 cells
  EC50: 35.2 ± 5.2 µM
  EC90: 74.6 ± 8.5 µM
[5]; Huh-7, Huh7 cells
  EC50: 15.6 ± 2.1 µM
  EC90: 58.3 ± 3.2 µM
[5]; SNB-19, SNB19 cells
  EC50: > 100 µM
  EC90: > 100 µM
[5]; Vero cells
  EC50: > 100 µM
  EC90: > 100 µM
